Data as given in patent US20050197371A1, “Urea derivatives as PDGFR modulators” (Ambit Biosciences Corporation, priority 2003, published 2005).
pKd: −log10 of the molar value.

Molecular target: T1, PDGFRB(DKIN) (PDGFR-β) (Homo sapiens, UniProt P09619)
T1 construct: PDGFRB(DKIN)
Assay: Phage-display competitive binding assay, PDGFRB(DKIN)
Details: T7 phage displaying human PDGFR-β, DKIN construct; read-out: Binding Assay: PDGFRB(DKIN)
Experimental: The term “ND” represents non-determined values.
Briefly, T7 phage displaying human PDGFR-β were incubated with an affinity matrix coated with known PDGFR-β inhibitor in the presence of various concentrations of the soluble competitor molecules.

Structure (SMILES)	pKd
CC(C)(C)c1cc(NC(=O)Nc2ccc(OCCN3CCOCC3)cc2)no1 [Compound G40]	5.00 to 6.00
CC(C)(C)c1cc(NC(=O)Nc2ccc(C(=O)Nc3nccnc3N)cc2)no1 [Compound N157]	> 7.00
CC(C)(C)c1cc(NC(=O)Nc2ccc(NC(=O)c3cc4ccccc4[nH]3)cc2)no1 [Compound N161]	> 7.00
CC(C)(C)c1cc(NC(=O)Nc2ccc(OCCN3CCOCC3)c3ccccc23)no1 [Compound K1]	6.00 to 7.00
Cc1sc(NC(=O)Nc2ccc(Cl)cc2)c(C(N)=O)c1C [Compound Z58]	< 5.00
CC(C)(C)c1cc(NC(=O)Nc2ccc(NC(=O)c3cccc[n+]3[O-])cc2)no1 [Compound N81]	> 7.00
CC(C)(C)c1cc(NC(=O)Nc2ccc(NC(=O)CSCC(=O)Nc3ccccc3)cc2)no1 [Compound N72]	6.00 to 7.00
CC(C)(C)c1cc(NC(=O)Nc2ccc(OCC3CC3)cc2)no1 [Compound G37]	> 7.00
CC(=O)c1ccc(NC(=O)Nc2cc(C(C)(C)C)on2)cc1 [Compound A20]	6.00 to 7.00
CC(=O)c1c[nH]c(C(=O)Nc2ccc(NC(=O)Nc3cc(C(C)(C)C)on3)cc2)c1 [Compound N43]	> 7.00
Cc1ccc(-n2nc(C(C)(C)C)cc2NC(=O)Nc2ccc(C(C)C)cc2)cc1 [Compound D1, 1-(3-tert-butyl-1-p-tolyl-1H-pyrazol-5-yl)-3-(4-isopropylphenyl)urea]	< 5.00
CC(C)(C)c1cc(NC(=O)Nc2ccc(NC(=O)c3nnsc3Oc3ccc(Cl)cc3)cc2)no1 [Compound N71]	5.00 to 6.00
CC(C)(C)c1cc(NC(=O)Nc2ccc(-c3nc(-c4ccc(Cl)cc4)no3)cc2)no1 [Compound P7]	6.00 to 7.00
CC(C)(C)c1cc(NC(=O)Nc2ccc(NC(=O)c3c(Cl)cccc3Cl)cc2)no1 [Compound N94]	6.00 to 7.00
CC(C)(C)c1cc(NC(=O)Nc2ccc(NC(=O)c3ccc(Cl)nc3Cl)cc2)no1 [Compound N130]	6.00 to 7.00
CC(C)(C)c1cc(NC(=O)Nc2ccc(CCc3ccc(N)cc3)cc2)no1 [Compound A3]	> 7.00
CC(C)(C)c1cc(NC(=O)Nc2ccc(NC(=O)C3=Cc4cc(F)cc(S(C)(=O)=O)c4C3)cc2)no1 [Compound N62]	5.00 to 6.00
CC(C)(C)c1cc(NC(=O)Nc2ccc(OCc3ccc(OC(F)(F)F)cc3)cc2)no1 [Compound G5]	> 7.00
Cc1nc(-c2ccc(Cl)cc2)sc1C(=O)Nc1ccc(NC(=O)Nc2cc(C(C)(C)C)on2)cc1 [Compound N184]	6.00 to 7.00
CC(C)(C)c1cc(NC(=O)Nc2ccc(OCc3ccc(Cl)cc3)cc2)no1 [Compound G34]	> 7.00
CC(C)(C)c1cc(NC(=O)Nc2ccc(OCc3ccc(F)cc3)cc2)no1 [Compound G35]	> 7.00
CC(C)(C)c1cc(NC(=O)Nc2ccc(OCc3cccc(Cl)c3)cc2)no1 [Compound G11]	> 7.00
CC(C)(C)c1cc(NC(=O)Nc2ccc(Nc3ccnc(N)n3)cc2)no1 [Compound O7]	6.00 to 7.00
COc1ccc(N(C)C(=O)Nc2cc(C(C)(C)C)on2)cc1 [Compound J10]	> 7.00
CC(C)(C)c1cc(C(=O)Nc2ccc(NC(=O)Nc3cc(C(C)(C)C)on3)cc2)n(-c2ccccc2)n1 [Compound N78]	5.00 to 6.00
CC(C)(C)c1cc(NC(=O)Nc2ccc(Nc3nc(Cl)nc4[nH]cnc34)cc2)no1 [Compound O4]	> 7.00
Cn1nc(C(F)(F)F)c2cc(C(=O)Nc3ccc(NC(=O)Nc4cc(C(C)(C)C)on4)cc3)sc21 [Compound N64]	< 5.00

Structure (SMILES)	pKd
Cc1cc(NC(=O)[C@](C)(O)CSc2ccc(F)cc2)ccc1NC(=O)Nc1cc(C(C)(C)C)on1 [Compound N170]	6.00 to 7.00
CC(C)(C)c1cc(NC(=O)Nc2ccc(NC(=O)c3ccc(Cl)nc3)cc2)no1 [Compound N125]	6.00 to 7.00
CSc1ccc(NC(=O)Nc2cc(C(C)(C)C)on2)cc1 [Compound A37]	6.00 to 7.00
CC(C)(C)c1cc(NC(=O)Nc2ccc(Cl)cc2)no1 [Compound A27]	6.00 to 7.00
CC(C)(C)c1cc(NC(=O)Nc2ccc(C(=O)NCc3ccc4c(c3)OCO4)cc2)no1 [Compound N97]	5.00 to 6.00
CC(C)(C)c1cc(NC(=O)Nc2ccc(OCc3ccc(F)cc3Cl)cc2)no1 [Compound G18]	> 7.00
Cc1nc(-c2ccccc2)sc1C(=O)Nc1ccc(NC(=O)Nc2cc(C(C)(C)C)on2)cc1 [Compound N181]	6.00 to 7.00
CC(C)(C)c1cc(NC(=O)Nc2ccc(NC(=O)c3c(F)cccc3F)cc2)no1 [Compound N37]	5.00 to 6.00
CC(C)(C)c1cc(NC(=O)Nc2ccc(NC(=O)c3ccc4ncccc4c3)cc2)no1 [Compound N151]	> 7.00
CC(C)c1nnsc1C(=O)Nc1ccc(NC(=O)Nc2cc(C(C)(C)C)on2)cc1 [Compound N182]	5.00 to 6.00
COc1cccc(COc2ccc(NC(=O)Nc3cc(C(C)(C)C)on3)cc2)c1 [Compound G13]	> 7.00
CC(C)(C)c1cc(NC(=O)Nc2ccc(NC(=O)c3csc(Cc4cccc(C(F)(F)F)c4)n3)cc2)no1 [Compound N180]	6.00 to 7.00
Cc1ccc(-n2nc(C(C)(C)C)cc2NC(=O)Nc2ccc(Br)cc2C(F)(F)F)cc1 [Compound H13]	5.00 to 6.00
Cc1ccc(C(=O)Nc2ccc(NC(=O)Nc3cc(C(C)(C)C)on3)cc2)cc1 [Compound N92]	> 7.00
CC(C)(C)c1cc(NC(=O)Nc2ccc(OCc3ccc(-c4ccccc4)cc3)cc2)no1 [Compound G56]	> 7.00
COc1ccc(N(N)C(=O)Nc2cc(C(C)(C)C)on2)cc1 [Compound J14]	< 5.00
CC(C)(C)c1cc(NC(=O)Nc2ccc(Nc3ncnc4[nH]cnc34)cc2)no1 [Compound O3]	> 7.00
O=C(Nc1ccc(OCc2ccccc2)cc1)Nc1cc(C2CC2)nn1-c1ccccc1 [Compound H8]	6.00 to 7.00
Cc1nc(C(=O)Nc2ccc(NC(=O)Nc3cc(C(C)(C)C)on3)cc2)c(C(F)(F)F)o1 [Compound N55]	6.00 to 7.00
Cc1ccc(NC(=O)Nc2cc(C(F)(F)F)cc(Cl)n2)cc1 [Compound W1]	6.00 to 7.00
COc1ccc(NC(=O)Nc2cc(C(C)(C)C)on2)cc1 [Compound A29]	6.00 to 7.00
COc1ccc(N2CCCN(c3cc(C(C)(C)C)no3)C2=O)cc1 [Compound E5]	6.00 to 7.00
CC(C)(C)c1cc(NC(=O)Nc2ccc([N+](=O)[O-])cc2)no1 [Compound A21]	6.00 to 7.00
CC(=O)c1ccc(N2CCC(C(=O)Nc3ccc(NC(=O)Nc4cc(C(C)(C)C)on4)cc3)CC2)cc1 [Compound N65]	6.00 to 7.00
CC(C)(C)c1cc(NC(=O)Nc2ccc(-c3nc(-c4cccc5ccccc45)no3)cc2)no1 [Compound P5]	6.00 to 7.00
COc1cc(OC)nc(N(C)c2cccc(C(=O)Nc3ccc(NC(=O)Nc4ccon4)cc3)c2)n1 [Compound N53]	6.00 to 7.00
CC(C)(C)c1cc(NC(=O)Nc2ccc(NC(=O)c3cnc4ccccc4n3)cc2)no1 [Compound N149]	5.00 to 6.00

Structure (SMILES)	pKd
CC(C)(C)c1cc(NC(=O)Nc2ccc(OCC(O)CO)cc2)no1 (stereo not shown) [Compound G28]	6.00 to 7.00
CC(C)(C)c1cc(NC(=O)Nc2ccc(NC(=O)c3cccc(F)n3)cc2)no1 [Compound N8]	> 7.00
O=C(Nc1ccc(Br)cc1)Nc1cc(C(F)(F)F)cc(Cl)n1 [Compound Z72]	< 5.00
CC(C)(C)c1cc(NC(=O)Nc2ccc3c(c2)OCO3)no1 [Compound A56]	5.00 to 6.00
CC(C)c1oc(Cl)nc1C(=O)Nc1ccc(NC(=O)Nc2cc(C(C)(C)C)on2)cc1 [Compound N75]	> 7.00
CC(C)(C)c1cc(NC(=O)Nc2ccc(NC(=O)c3cc([N+](=O)[O-])ccn3)cc2)no1 [Compound N7]	> 7.00
CC(C)(C)c1cc(NC(=O)Nc2ccc(CCc3ccccc3)cc2)no1 [Compound A15]	> 7.00
Cc1ccc2[nH]c(C(=O)Nc3ccc(NC(=O)Nc4cc(C(C)(C)C)on4)cc3)cc2c1 [Compound N127]	> 7.00
CC(C)(C)c1cc(NC(=O)Nc2ccc(NC(=O)c3ccncc3)cc2)no1 [Compound N167]	> 7.00
CC(C)(C)c1cc(NC(=O)Nc2ccc(NC(=O)c3cccc(Br)c3)cc2)no1 [Compound N24]	5.00 to 6.00
COc1ccc(-c2cc(C(=O)Nc3ccc(NC(=O)Nc4cc(C(C)(C)C)on4)cc3)c(C)o2)cc1 [Compound N118]	5.00 to 6.00
CC(C)(C)c1cc(NC(=O)Nc2ccc(NC(=O)c3cccc4cccnc34)cc2)no1 [Compound N115]	> 7.00
CC(C)(C)c1cc(NC(=O)Nc2ccc(C(=O)NCCO)cc2)no1 [Compound N87]	6.00 to 7.00
CC(C)(C)c1cc(NC(=O)Nc2ccc(NC(=O)c3ncccc3C(N)=O)cc2)n[nH]1 [Compound N6]	6.00 to 7.00
COc1cc(OC)nc(Oc2cccnc2C(=O)Nc2ccc(NC(=O)Nc3cc(C(C)(C)C)on3)cc2)n1 [Compound N56]	5.00 to 6.00
Cc1nn(C)c(Cl)c1C(=O)Nc1ccc(NC(=O)Nc2cc(C(C)(C)C)on2)cc1 [Compound N116]	> 7.00
CC(C)(C)c1cc(N2CCCN(c3ccc(OCc4ccccc4)cc3)C2=O)no1 [Compound E3]	< 5.00
Cn1nc(C2CC2)cc1NC(=O)Nc1ccc(OCc2ccccc2)cc1 [Compound H7]	< 5.00
CC(=O)NS(=O)(=O)c1ccc(NC(=O)Nc2cc(C(C)(C)C)on2)cc1 [Compound V4]	< 5.00
COc1ccnc(Nc2ccc(C(=O)Nc3ccc(NC(=O)Nc4cc(C(C)(C)C)on4)cc3)cc2)n1 [Compound N51]	> 7.00
COc1cc(NC(=O)c2cn3nc(Cl)ccc3n2)ccc1NC(=O)Nc1cc(C(C)(C)C)on1 [Compound N171]	6.00 to 7.00
COc1cc(OC)nc(Nc2cccc(C(=O)Nc3ccc(NC(=O)Nc4cc(C(C)(C)C)on4)cc3)c2)n1 [Compound N49]	6.00 to 7.00
CC(C)(C)c1cc(NC(=O)Nc2ccc(Br)cc2C(F)(F)F)on1 [Compound A26]	5.00 to 6.00
CC(C)(C)c1cc(NC(=O)Nc2ccc(NC(=O)Cc3noc4ccccc34)cc2)no1 [Compound N80]	> 7.00
Cn1nc(-c2ccccc2)c(C(=O)Nc2ccc(NC(=O)Nc3cc(C(C)(C)C)on3)cc2)c1Cl [Compound N11]	< 5.00
